# Source: ChEMBL document CHEMBL4229439, “Design, synthesis and antimycobacterial activity of 3,5-dinitrobenzamide derivatives containing fused ring moieties” (2018)
# Activity calls are given as the source filed them. The rule behind the calls is not given here.
# Tested on: Mycobacterium tuberculosis
# Assay: Antimycobacterial activity against Mycobacterium tuberculosis H37Rv ATCC 27294 up to 10 ug/ml after 7 days by Alamar blue assay
# Type: functional, organism-based
# Conditions: not given
row,SMILES,Activity
1,O=C(NCc1ccc2c(c1)CNC2)c1cc([N+](=O)[O-])cc([N+](=O)[O-])c1,inactive

# Tested on: Mycobacterium tuberculosis
# Assay: Antimycobacterial activity against Mycobacterium tuberculosis H37Rv ATCC 27294 after 7 days by Alamar blue assay
# Type: functional
# Conditions: H37Rv ATCC 27294, 168 h
row,SMILES,MIC
1,O=C(NCc1ccc2c(c1)CCN(Cc1ccc(OC(F)(F)F)cc1)C2)c1cc([N+](=O)[O-])cc([N+](=O)[O-])c1,0.241 µg/mL
2,O=C(NCc1ccc2c(c1)CNC2)c1cc([N+](=O)[O-])cc([N+](=O)[O-])c1,< 0.016 µg/mL
3,CCN(CC)C(=O)CN1CCc2cc(CNC(=O)c3cc([N+](=O)[O-])cc([N+](=O)[O-])c3)ccc2C1,15.3 µg/mL
4,O=C(NCc1ccc2c(c1)CCN(C(=O)CC1CCCCC1)C2)c1cc([N+](=O)[O-])cc([N+](=O)[O-])c1,0.978 µg/mL
5,O=C(NCc1ccc2c(c1)CN(C(=O)c1ccc(F)cc1)C2)c1cc([N+](=O)[O-])cc([N+](=O)[O-])c1,0.926 µg/mL
6,CC(=O)CCN1CCc2cc(CNC(=O)c3cc([N+](=O)[O-])cc([N+](=O)[O-])c3)ccc2C1,22.7 µg/mL
7,O=C(NCc1ccc2c(c1)CCN(C(=O)c1ccccc1)C2)c1cc([N+](=O)[O-])cc([N+](=O)[O-])c1,0.974 µg/mL
8,O=C(NCc1ccc2c(c1)CCN(C(=O)C1CCCCC1)C2)c1cc([N+](=O)[O-])cc([N+](=O)[O-])c1,0.5 µg/mL
9,O=C(NCc1ccc2c(c1)CCN(c1ccc(OC(F)(F)F)cc1)C2)c1cc([N+](=O)[O-])cc([N+](=O)[O-])c1,0.241 µg/mL
10,COc1ccc(CN2Cc3ccc(CNC(=O)c4cc([N+](=O)[O-])cc([N+](=O)[O-])c4)cc3C2)cc1,0.03 µg/mL
11,CO[C@H]1/C=C/O[C@@]2(C)Oc3c(C)c(O)c4c(O)c(c(/C=N/N5CCN(C)CC5)c(O)c4c3C2=O)NC(=O)/C(C)=C\C=C\[C@H](C)[C@H](O)[C@@H](C)[C@@H](O)[C@@H](C)[C@H](OC(C)=O)[C@@H]1C [RIFAMPIN],0.095 µg/mL
12,O=C(NCc1ccc2c(c1)CN(Cc1ccc(C(F)(F)F)cc1)C2)c1cc([N+](=O)[O-])cc([N+](=O)[O-])c1,< 0.016 µg/mL
13,CN1CCc2cc(CNC(=O)c3cc([N+](=O)[O-])cc([N+](=O)[O-])c3)ccc2C1,11.4 µg/mL
14,COc1ccc(C(=O)N2CCc3cc(CNC(=O)c4cc([N+](=O)[O-])cc([N+](=O)[O-])c4)ccc3C2)cc1,1.15 µg/mL
15,O=C(NCc1ccc2c(c1)CCN(C(=O)c1ccc(F)cc1)C2)c1cc([N+](=O)[O-])cc([N+](=O)[O-])c1,0.424 µg/mL
16,O=c1nc(N2CCN(CC3CCCCC3)CC2)sc2c([N+](=O)[O-])cc(C(F)(F)F)cc12 [MACOZINONE],< 0.016 µg/mL
17,O=C(NCc1ccc2c(c1)CN(c1ccc(F)cc1)C2)c1cc([N+](=O)[O-])cc([N+](=O)[O-])c1,0.026 µg/mL
18,O=C(NCc1ccc2c(c1)CN(Cc1ccc(OC(F)(F)F)cc1)C2)c1cc([N+](=O)[O-])cc([N+](=O)[O-])c1,0.016 µg/mL
19,O=C(NCc1ccc2c(c1)CCN(Cc1cc(C(F)(F)F)cc(C(F)(F)F)c1)C2)c1cc([N+](=O)[O-])cc([N+](=O)[O-])c1,1.9 µg/mL
20,O=C(NCc1ccc2c(c1)CCN(Cc1cccc(F)c1)C2)c1cc([N+](=O)[O-])cc([N+](=O)[O-])c1,0.056 µg/mL
21,NNC(=O)c1ccncc1 [ISONIAZID],0.039 µg/mL

row,SMILES,MIC
1,O=C(CN1CCc2cc(CNC(=O)c3cc([N+](=O)[O-])cc([N+](=O)[O-])c3)ccc2C1)NCc1ccccc1,3.96 µg/mL
2,O=C(NCc1ccc2c(c1)CN(Cc1ccc(F)cc1)C2)c1cc([N+](=O)[O-])cc([N+](=O)[O-])c1,0.028 µg/mL
3,CC(C)(C)C(=O)N1CCc2cc(CNC(=O)c3cc([N+](=O)[O-])cc([N+](=O)[O-])c3)ccc2C1,0.447 µg/mL
4,CCOC(=O)CN1CCc2cc(CNC(=O)c3cc([N+](=O)[O-])cc([N+](=O)[O-])c3)ccc2C1,0.243 µg/mL
5,O=C(CN1CCc2cc(CNC(=O)c3cc([N+](=O)[O-])cc([N+](=O)[O-])c3)ccc2C1)OCc1ccccc1,7.55 µg/mL
6,O=C(NCc1ccc2c(c1)CCN(c1ccc(F)cc1)C2)c1cc([N+](=O)[O-])cc([N+](=O)[O-])c1,0.076 µg/mL
7,CC(C)CC(=O)N1CCc2cc(CNC(=O)c3cc([N+](=O)[O-])cc([N+](=O)[O-])c3)ccc2C1,0.204 µg/mL
8,O=C(NCc1ccc2c(c1)CN(c1ccc(C(F)(F)F)cc1)C2)c1cc([N+](=O)[O-])cc([N+](=O)[O-])c1,0.098 µg/mL
9,CC(C)(C)OC(=O)CN1CCc2cc(CNC(=O)c3cc([N+](=O)[O-])cc([N+](=O)[O-])c3)ccc2C1,3.81 µg/mL
10,CC(=O)CN1CCc2cc(CNC(=O)c3cc([N+](=O)[O-])cc([N+](=O)[O-])c3)ccc2C1,3.12 µg/mL
11,CCC(C)C(=O)N1CCc2cc(CNC(=O)c3cc([N+](=O)[O-])cc([N+](=O)[O-])c3)ccc2C1 (stereo not drawn),0.468 µg/mL
12,O=C(NCc1ccc2c(c1)CCN(CC1CCCCC1)C2)c1cc([N+](=O)[O-])cc([N+](=O)[O-])c1,0.226 µg/mL
13,O=C(NCc1ccc2c(c1)CN(C(=O)c1ccccc1)C2)c1cc([N+](=O)[O-])cc([N+](=O)[O-])c1,1.45 µg/mL
14,O=C(NCc1ccc2c(c1)CN(C(=O)C1CCCCC1)C2)c1cc([N+](=O)[O-])cc([N+](=O)[O-])c1,0.808 µg/mL
15,O=C(NCc1ccc2c(c1)CCN(Cc1ccc(Cl)cc1)C2)c1cc([N+](=O)[O-])cc([N+](=O)[O-])c1,0.056 µg/mL
16,CC(C)(C)C(=O)N1Cc2ccc(CNC(=O)c3cc([N+](=O)[O-])cc([N+](=O)[O-])c3)cc2C1,0.489 µg/mL
17,O=C(NCc1ccc2c(c1)CCN(c1ccc(C(F)(F)F)cc1)C2)c1cc([N+](=O)[O-])cc([N+](=O)[O-])c1,0.079 µg/mL
18,COc1ccc(C(=O)N2Cc3ccc(CNC(=O)c4cc([N+](=O)[O-])cc([N+](=O)[O-])c4)cc3C2)cc1,> 32 µg/mL
19,O=C(NCc1ccc2c(c1)CCN(Cc1ccc(Br)cc1)C2)c1cc([N+](=O)[O-])cc([N+](=O)[O-])c1,0.108 µg/mL
20,O=C(NCc1ccc2c(c1)CN(C(=O)c1ccc(OC(F)(F)F)cc1)C2)c1cc([N+](=O)[O-])cc([N+](=O)[O-])c1,0.309 µg/mL
21,O=C(NCc1ccc2c(c1)CCN(Cc1ccc(F)cc1)C2)c1cc([N+](=O)[O-])cc([N+](=O)[O-])c1,0.122 µg/mL
